Laboratory results from patent US20260022114A1, “N-(5-SUBSTITUTED-[(1,3,4-THIADIAZOLYL) OR (1,3-THIAZOLYL)](SUBSTITUTED)CARBOXAMIDE COMPOUNDS, PHARMACEUTICAL COMPOSITIONS, AND METHODS OF PREPARING THE AMIDE COMPOUNDS AND OF THEIR USE” (Repare Therapeutics Inc., priority 2022, published 2026).

target: PolQ ATPase enzyme (1-894) (Homo sapiens (Human), UniProt O75417); assay: Polθ ATPase enzymatic assay (0.5 nM enzyme concentration), ADP-Glo; format: biochemical; settings: 0.5 nM PolQ ATPase enzyme (1-894); average IC50
Protocol: PolQ ATPase enzyme (1-894) at 0.5 nM is incubated with a 10-point concentration response of inhibitors for 15 min at rt in the following buffer: 50 mM Tris Cl pH 7.5, 10% glycerol, 5 mM DTT, 10 mM MgCl2, 0.1 mg/ml BSA. Following pre-incubation with inhibitors, DNA (Fork C) at 20 nM and ATP at 100 μM are added to start the reaction. Enzymatic reaction proceeds at rt for 180 min. ATP consumption is measured using the ADP-Glo assay from Promega. Luminescence is read on the Envision and IC50 are determined using the variable slope 4-parameters equation.
Oligos are annealed by heating at 95° C. for 5 min in the following buffer (10 mM Tris-HCl PH7.5, 50 mM NaCl, 1 mM EDTA) and cooled to rt. […]

Chain of PolQ ATPase enzyme (1-894) (O75417 1-894): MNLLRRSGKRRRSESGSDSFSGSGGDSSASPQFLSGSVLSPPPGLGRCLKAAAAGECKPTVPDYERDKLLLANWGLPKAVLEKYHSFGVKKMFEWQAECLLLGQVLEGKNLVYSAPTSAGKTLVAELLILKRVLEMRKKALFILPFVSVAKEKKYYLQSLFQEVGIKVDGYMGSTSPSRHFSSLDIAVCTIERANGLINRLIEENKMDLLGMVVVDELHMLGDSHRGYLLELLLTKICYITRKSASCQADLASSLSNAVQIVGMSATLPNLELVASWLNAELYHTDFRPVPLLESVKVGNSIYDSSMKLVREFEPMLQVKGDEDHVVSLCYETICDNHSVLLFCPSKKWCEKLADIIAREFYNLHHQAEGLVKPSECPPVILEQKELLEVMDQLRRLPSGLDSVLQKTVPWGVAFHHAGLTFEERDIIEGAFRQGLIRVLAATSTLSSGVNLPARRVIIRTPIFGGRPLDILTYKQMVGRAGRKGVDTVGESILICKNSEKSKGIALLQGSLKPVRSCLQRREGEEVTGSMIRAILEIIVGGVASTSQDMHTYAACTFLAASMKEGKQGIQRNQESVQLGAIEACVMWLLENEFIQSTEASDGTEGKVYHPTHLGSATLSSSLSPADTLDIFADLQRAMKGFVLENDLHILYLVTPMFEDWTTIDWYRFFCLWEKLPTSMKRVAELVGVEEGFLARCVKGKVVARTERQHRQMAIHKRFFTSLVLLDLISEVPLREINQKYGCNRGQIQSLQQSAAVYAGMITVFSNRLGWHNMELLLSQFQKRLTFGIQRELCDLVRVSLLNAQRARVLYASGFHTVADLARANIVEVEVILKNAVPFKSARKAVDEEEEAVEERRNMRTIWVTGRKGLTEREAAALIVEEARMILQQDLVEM

Question: With C#C[C@H]1C[C@@H](c2nnc(NC(=O)c3cnc(-n4ccc(C)cc4=O)cc3-c3cc(C(F)F)ncc3OC)s2)C1 [Compound 594] as the molecule, how does the IC50 read?
Answer: Its IC50 is 3 nM.

Question: COc1cnc(C(F)F)cc1-c1cc(-c2ccc[nH]c2=O)ncc1C(=O)Nc1nnc(C#CC2CC2)s1 [Compound 484] was tested. Which IC50 did it give?
Answer: The IC50 was 0.32 nM.

Question: COc1ccc(-c2cc(-c3cc(C(F)F)ncc3OC)c(C(=O)Nc3nnc(C#CC4CC4)s3)cn2)c(OC)n1 [Compound 538] was tested. Which IC50 did it give?
Answer: The IC50 was 5.7 nM.

Question: How did the IC50 turn out when COc1cnc(C(F)F)cc1-c1cc(C2C[C@@H]2C(=O)N(C)C)ncc1C(=O)Nc1nnc(C#CC2CC2)s1 (mixture of isomers) [Compound 361] was run?
Answer: The IC50 was 1.9 nM.

Question: With COc1cnc(C(F)F)cc1-c1cc(N2CCC3CCC3C2=O)ncc1C(=O)Nc1nnc(C#CC2CC2)s1 (racemic) [Compound 443] as the molecule, how does the IC50 read?
Answer: Its IC50 is under 0.25 nM.

Question: For COc1cnc(C(F)F)cc1-c1cc(-n2cccc(Cl)c2=O)ncc1C(=O)Nc1nnc([C@H]2C[C@@H]2C(F)(F)F)s1 [Compound 607], which IC50 is on record?
Answer: Its IC50 is 0.95 nM.

Question: With COc1cnc(C(F)F)cc1-c1cc(-n2ccc(C)cc2=O)ncc1C(=O)Nc1nnc(C2CC(C)(C)C2)s1 [Compound 567] as the molecule, how does the IC50 read?
Answer: Its IC50 is 4.3 nM.

Question: With COc1cnc(C(F)F)cc1-c1cc(N2C[C@H](C)OCC2=O)ncc1C(=O)Nc1nnc(C#CC2CC2)s1 [Compound 486] as the molecule, how does the IC50 read?
Answer: The IC50 was 0.36 nM.

Question: For C#C[C@@]1(F)CC1c1nnc(NC(=O)c2cnc(-n3ccc(C)cc3=O)cc2-c2cc(C(F)F)ncc2OC)s1 (mixture of isomers) [Compound 639], which IC50 is on record?
Answer: Its IC50 is 0.47 nM.

Question: For COc1cnc(C(F)F)cc1-c1cc(-n2ccc(C)cc2=O)ncc1C(=O)Nc1nnc([C@H]2C[C@@H]2C)s1 [Compound 545], which IC50 is on record?
Answer: Its IC50 is 1.1 nM.

Question: With COc1cnc(C(F)F)cc1-c1cc(-n2ccc(C)cc2=O)ncc1C(=O)Nc1nnc([C@H]2C[C@@H]2c2ccn(C)n2)s1 (racemic) [Compound 583, 2″-(difluoromethyl)-5″-methoxy-4-methyl-N-(5-((1S,2S)-2-(1-methyl-1H-pyrazol-3-yl)cyclopropyl)-1,3,4-thiadiazol-2-yl)-2-oxo-2H-[1,2′:4′,4″-terpyridine]-5′-carboxamide] as the molecule, how does the IC50 read?
Answer: Its IC50 is under 0.25 nM.

Question: With COc1cnc(C(F)F)cc1-c1cc(-n2cc(C)ccc2=O)ncc1C(=O)Nc1nnc([C@H]2C[C@@H]2C(F)(F)F)s1 [Compound 551] as the molecule, how does the IC50 read?
Answer: Its IC50 is 0.47 nM.

Question: Which IC50 does the source give for C#C[C@H]1CC1c1nnc(NC(=O)c2cnc(N3CCN(C(=O)OC)C4(CC4)C3=O)cc2-c2cc(C(F)F)ncc2OC)s1 (single isomer, unassigned) [Compound 636] here?
Answer: Its IC50 is 0.33 nM.

Question: COc1cnc(C(F)F)cc1-c1cc(-n2ccc(C)cc2=O)ncc1C(=O)Nc1nnc(C#CC2CC23CC3)s1 (racemic) [Compound 557] was tested. Which IC50 did it give?
Answer: The IC50 was under 0.25 nM.

Question: With COc1cnc(C(F)F)cc1-c1cc(N2CCN(CC(F)(F)F)C3(CC3)C2=O)ncc1C(=O)Nc1nnc(C#CC2CC2)s1 [Compound 515] as the molecule, how does the IC50 read?
Answer: The IC50 was 2.7 nM.

Question: For COc1cnc(C(F)F)cc1-c1cc(-n2ccncc2=O)ncc1C(=O)Nc1nnc(C#CC2CC2)s1 [Compound 531], which IC50 is on record?
Answer: The IC50 was 0.27 nM.

Question: How did the IC50 turn out when COc1cnc(C(F)F)cc1-c1cc(-n2ccc(C)cc2=O)ncc1C(=O)Nc1nnc([C@H]2C[C@@H]2C2CCOCC2)s1 (racemic) [Compound 581] was run?
Answer: The IC50 was 0.99 nM.

Question: With C#C[C@H]1C[C@@H]1c1nnc(NC(=O)c2cnc(-n3ccc(N4CC5(COC5)C4)cc3=O)cc2-c2cc(C(F)F)ncc2OC)s1 [Compound 627] as the molecule, how does the IC50 read?
Answer: Its IC50 is 0.3 nM.

Question: For [2H]C([2H])([2H])N1CCN(c2cc(-c3cc(C(F)F)ncc3OC)c(C(=O)Nc3nnc(C#CC4CC4)s3)cn2)C(=O)C12CC2 [Compound 503], which IC50 is on record?
Answer: The IC50 was under 0.25 nM.

Question: With COc1cnc(C(F)F)cc1-c1cc(-n2ccc(C)cc2=O)ncc1C(=O)Nc1nnc(C(C)OC)s1 (racemic) [Compound 604] as the molecule, how does the IC50 read?
Answer: The IC50 was 30 nM.

Question: How did the IC50 turn out when COc1cnc(C(F)F)cc1-c1cc(-n2ccc(C#N)cc2=O)ncc1C(=O)Nc1nnc(C#CC2CC2)s1 [Compound 493] was run?
Answer: Its IC50 is under 0.25 nM.

Question: For COC(=O)c1ccn(-c2cc(-c3cc(C(F)F)ncc3OC)c(C(=O)Nc3nnc(C#CC4CC4)s3)cn2)c(=O)c1 [Compound 496], which IC50 is on record?
Answer: The IC50 was under 0.25 nM.

Question: COc1cnc(C(F)F)cc1-c1cc(N2CCN(C(=O)C(C)(C)C)C3(CC3)C2=O)ncc1C(=O)Nc1nnc(C#CC2CC2)s1 [Compound 516] was tested. Which IC50 did it give?
Answer: Its IC50 is 0.39 nM.

Question: How did the IC50 turn out when C#C[C@H]1C[C@@H]1c1nnc(NC(=O)c2cnc(-n3cc(C)ccc3=O)cc2-c2cc(C(F)F)ncc2OC)s1 [Compound 546] was run?
Answer: The IC50 was under 0.25 nM.

Question: Which IC50 does the source give for COc1cnc(C(F)F)cc1-c1cc(-n2ccc(C)cc2=O)ncc1C(=O)Nc1nnc([C@H]2C[C@@H]2C(F)(F)F)s1 [Compound 534] here?
Answer: Its IC50 is 0.95 nM.

Question: COc1cnc(C(F)F)cc1-c1cc(C#CCN2CCOCC2)ncc1C(=O)Nc1nnc([C@H]2C[C@@H]2C(F)(F)F)s1 [Compound 609] was tested. Which IC50 did it give?
Answer: The IC50 was 3.1 nM.

Question: How did the IC50 turn out when COc1cnc(C(F)F)cc1-c1cc(C#CCN2CCCC2=O)ncc1C(=O)Nc1nnc([C@H]2C[C@@H]2c2cncs2)s1 (racemic) [Compound 643] was run?
Answer: The IC50 was 0.3 nM.

Question: With COc1cnc(C(F)F)cc1-c1cc(-n2ccc(C(=O)O)cc2=O)ncc1C(=O)Nc1nnc(C#CC2CC2)s1 [Compound 495] as the molecule, how does the IC50 read?
Answer: The IC50 was 0.33 nM.

Question: How did the IC50 turn out when COc1cnc(C(F)F)cc1-c1cc(C2C[C@@H]2C(=O)N(C)C)ccc1C(=O)Nc1nnc(C#CC2CC2)s1 (mixture of isomers) [Compound 362] was run?
Answer: The IC50 was 1.4 nM.

Question: COc1cnc(C(F)F)cc1-c1cc(-n2ncc(C)cc2=O)ncc1C(=O)Nc1nnc(C2C[C@@H]2C)s1 (single isomer, unassigned) [Compound 642] was tested. Which IC50 did it give?
Answer: Its IC50 is 0.72 nM.

Question: COc1cnc(C(F)F)cc1-c1cc(-n2ccc(N3CC4(COC4)C3)cc2=O)ncc1C(=O)Nc1nnc(C#CC2CC2)s1 [Compound 613] was tested. Which IC50 did it give?
Answer: The IC50 was 0.35 nM.

Question: How did the IC50 turn out when C#C[C@H]1C[C@@H]1c1nnc(NC(=O)c2cnc(N3CCN(C(=O)OCC)C4(CC4)C3=O)cc2-c2cc(C(F)F)ncc2OC)s1 [Compound 565] was run?
Answer: Its IC50 is 1.1 nM.

Question: Which IC50 does the source give for COc1cnc(C(F)F)cc1-c1cc(-n2ccc(OC3CCN(C)C3)cc2=O)ncc1C(=O)Nc1nnc(C#CC2CC2)s1 (racemic) [Compound 612] here?
Answer: Its IC50 is 0.85 nM.

Question: COc1ncc(-c2cc(-c3cc(C(F)F)ncc3OC)c(C(=O)Nc3nnc(C#CC4CC4)s3)cn2)cn1 [Compound 533] was tested. Which IC50 did it give?
Answer: Its IC50 is 1.6 nM.

Question: For C#C[C@H]1C[C@@H]1c1nnc(NC(=O)c2cnc(-n3cccc(C)c3=O)cc2-c2cc(C(F)F)ncc2OC)s1 [Compound 547], which IC50 is on record?
Answer: Its IC50 is under 0.25 nM.

Question: COc1cnc(C(F)F)cc1-c1cc(-n2ccc(C)cc2=O)ncc1C(=O)Nc1nnc([C@H]2C[C@@H]2c2ccc(C#N)cc2)s1 [Compound 563] was tested. Which IC50 did it give?
Answer: The IC50 was under 0.25 nM.

Question: For COc1cnc(C(F)F)cc1-c1cc(N2C[C@@H](C)OCC2=O)ncc1C(=O)Nc1nnc(C#CC2CC2)s1 [Compound 502], which IC50 is on record?
Answer: Its IC50 is 2.4 nM.

Question: For COc1cnc(C(F)F)cc1-c1cc(C#CCN2CCCC2=O)ncc1C(=O)Nc1nnc([C@H]2C[C@@H]2C)s1 (racemic) [Compound 618], which IC50 is on record?
Answer: The IC50 was 0.81 nM.

Question: For C#C[C@@H]1CC1c1nnc(NC(=O)c2ccc(N3CCOCC3=O)cc2-c2cc(C(F)F)ncc2OC)s1 (stereo partly shown) [Compound 177], which IC50 is on record?
Answer: Its IC50 is 0.39 nM.

Question: With COc1cnc(C(F)F)cc1-c1cc(-n2ccc(C)cc2=O)ncc1C(=O)Nc1nnc([C@H]2C[C@@H]2C2CC2)s1 (racemic) [Compound 580] as the molecule, how does the IC50 read?
Answer: Its IC50 is 0.34 nM.

Question: With COc1cnc(C(F)F)cc1-c1cc(N2CCN(C3CC3)C3(CC3)C2=O)ncc1C(=O)Nc1nnc(C#CC2CC2)s1 [Compound 510] as the molecule, how does the IC50 read?
Answer: Its IC50 is 0.92 nM.

Question: COc1cnc(C(F)F)cc1-c1cc(C=C=CN2CCOCC2=O)ncc1C(=O)Nc1nnc(C#CC2CC2)s1 [Compound 543] was tested. Which IC50 did it give?
Answer: The IC50 was 51 nM.

Question: For C#C[C@H]1CC1c1nnc(NC(=O)c2cnc(-n3ccc(C)cc3=O)cc2-c2cc(Cl)ncc2OC)s1 (single isomer, unassigned) [Compound 590], which IC50 is on record?
Answer: Its IC50 is under 0.25 nM.
